“Also recorded” adds a separate entry of the source.

One data set deals with APP (Homo sapiens, UniProt P05067). It is filed as binding.
The next data set deals with control Fc protein. The format is binding, human.
Another data set concerns the target APLP2 (Homo sapiens, UniProt Q06481). The format is binding.
The test system of a further data set is PrP Δ52–91. The format is binding, mouse.
Another data set deals with PrP-Fc. The format is binding, mouse.
The next data set addresses PrP^C (Mus musculus, UniProt P04925). It is filed as binding.
In another data set the target is Doppel (Homo sapiens, UniProt Q9UKY0). It is filed as binding.
The next data set has as its system PrP Δ70–105. The format is binding, mouse.
The target in another data set is PrP Δ32–121 (Mus musculus, UniProt P04925, DEL32-121). The format is binding.
Another data set relates to hippocampal neurons. It is filed as binding, rat.
For data set [1], the system named is receptor for advanced glycation endproducts (RAGE). The format is binding.
The next data set has as its system PrP Δ95–105. The format is binding, mouse.
Data set [2] concerns Schaffer collateral LTP, Prnp −/− hippocampal slices. Also on record: species or system mouse.
Data set [3] relates to hippocampal long-term potentiation. As to conditions: cited from earlier work.
Data set [4] deals with NR-2B containing receptors. The format is cell-based.
The test system of data set [5] is NR-2D containing receptors. It is filed as cell-based.
The test system of data set [6] is hippocampal cultures from Prnp −/− mice. The format is binding, mouse.
In a further data set the target is PrP Δ32–106 (Mus musculus, UniProt P04925, DEL32-106). It is filed as binding.
Data set [7] concerns Schaffer collateral LTP, wild-type hippocampal slices. More on the design: species or system mouse.
A further data set deals with T1, Sprn (Mus musculus, UniProt Q8BWU1).
T1 sequence (Q8BWU1 whole entry, looked up): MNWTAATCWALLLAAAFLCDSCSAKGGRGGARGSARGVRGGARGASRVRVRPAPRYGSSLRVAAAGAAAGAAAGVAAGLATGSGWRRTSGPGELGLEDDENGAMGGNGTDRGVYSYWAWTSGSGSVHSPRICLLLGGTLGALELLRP
It is filed as binding.

The format of data set [8] is physicochemical. Particulars: pH 7.

Sequence of APLP2 (Q06481 32-763): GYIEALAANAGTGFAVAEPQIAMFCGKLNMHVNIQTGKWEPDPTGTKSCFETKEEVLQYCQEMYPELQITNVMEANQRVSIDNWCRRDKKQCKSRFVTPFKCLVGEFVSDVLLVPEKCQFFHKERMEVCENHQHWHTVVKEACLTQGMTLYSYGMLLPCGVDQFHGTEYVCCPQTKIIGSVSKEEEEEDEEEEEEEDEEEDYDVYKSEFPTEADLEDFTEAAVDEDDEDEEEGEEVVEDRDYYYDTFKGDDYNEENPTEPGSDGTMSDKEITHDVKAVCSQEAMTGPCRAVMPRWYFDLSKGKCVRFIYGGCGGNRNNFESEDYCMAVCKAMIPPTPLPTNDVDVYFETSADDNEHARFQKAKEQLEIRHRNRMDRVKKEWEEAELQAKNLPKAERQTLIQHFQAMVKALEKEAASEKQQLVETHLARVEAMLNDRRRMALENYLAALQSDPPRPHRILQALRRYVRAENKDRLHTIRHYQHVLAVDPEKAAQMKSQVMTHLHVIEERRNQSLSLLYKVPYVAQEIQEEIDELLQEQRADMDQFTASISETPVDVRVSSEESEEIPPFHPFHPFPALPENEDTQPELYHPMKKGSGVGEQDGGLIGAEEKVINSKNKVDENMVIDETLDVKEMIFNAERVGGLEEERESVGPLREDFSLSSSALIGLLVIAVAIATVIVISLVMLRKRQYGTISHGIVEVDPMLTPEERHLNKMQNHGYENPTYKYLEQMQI

On to Aβ42, for which the “binding to APP (in words)” value in the data set with APP is given as “neither of these proteins binds Aβ42”. Moreover, the “retention by control Fc” value with control Fc protein was “retained neither freshly prepared nor oligomeric preparations of Aβ42”. Moreover, the “binding to APLP2 (in words)” value with APLP2 is given as “neither of these proteins binds Aβ42”. For the same substance, the “binding to PrP Δ52–91 (in words)” value with PrP Δ52–91 is “exhibits significant Aβ42 binding”. Besides, the “retention by PrP-Fc (in words)” value in the data set with PrP-Fc is “retained Aβ42 peptide through a direct physical interaction”.
Consider Aβ42-oligomer, for which, in the data set with PrP^C, the “effect of copper on binding to PrP” value was “does not alter Aβ42-oligomer binding”. For the same substance, the Kd with PrP^C (read-out: KD, PrP) stood at 92 nM. In the data set with Doppel, the “affinity for Doppel (in words)” value is “neither exhibited affinity for oligomeric Aβ42”. Besides, in the data set on PrP Δ70–105, the “binding to PrP Δ70–105 (in words)” value is listed as “no further reduction”. Further, the “binding to PrP Δ32–121 (in words)” value with PrP Δ32–121 is “abrogates binding”. Moreover, in the data set on hippocampal neurons, the “binding to hippocampal neurons” value is reported as “saturable; also recorded: binds to 21 DIV hippocampal neurons”; the “developmental dependence of neuronal binding” value is “minimal binding to neurons immediately after dissociation from E18 hippocampus; also recorded: Not until 15–20 days have elapsed in vitro does Aβ42-oligomer binding to neurons become robust”; the “localization of binding on neurons” value was “most concentrated at post-synaptic densities; also recorded: localization of PrP immunoreactivity and Aβ42-oligomer binding overlap extensively”. Further, at hippocampal neurons (read-out: apparent KD), the Kd is 50 to 100 nM. The “binding to RAGE (in words)” value in [1] is on record as “less Aβ42-oligomer binding signal than did PrP, APLP1 or TMEM30B”. The “reduction of binding, PrP Δ95–105” value in the data set on PrP Δ95–105 was 80%. Besides, in data set [2], the “effect on LTP, Prnp −/− slices” value is “no significant inhibition of LTP”. The “effect on Schaffer collateral LTP” value in [3] is reported as “suppress long-term potentiation (LTP)”. Moreover, the “effect on NR2B-containing NMDA receptor currents” value in [4] is “insensitive to Aβ42-oligomers”. Further, the “effect on NR2D-containing NMDA receptor currents” value in [5] was “insensitive to Aβ42-oligomers”. The “reduction of punctate binding in Prnp −/− cultures” value in data set [6] amounted to 50%. Besides, the “binding to PrP Δ32–106 (in words)” value with PrP Δ32–106 is given as “no Aβ42-oligomer affinity”. In addition, in data set [7], the “effect on LTP, wild-type slices” value is on record as “reduce LTP in hippocampal slices from wild-type mice”. In addition, the “affinity for Sprn (in words)” value with Sprn is “neither exhibited affinity for oligomeric Aβ42”.
As for “biotin-Aβ42-oligomer: Aβ42 with biotin moiety attached by 6-carbon linker to amino terminus, oligomerized”, in [8], the particle diameter is given as 5–6 nm. Further, the “localization of binding on neurons” value in the data set with hippocampal neurons is recorded as “very low levels in astroglial cells”.
Regarding “freshly prepared biotin-Aβ42: freshly prepared Aβ42 with biotin attached by 6-carbon linker to amino terminus”, the “binding to hippocampal neurons” value in the data set with hippocampal neurons is given as “does not”.

The record behind these values is article PMC2748841 (Nature, 2009).
